Experimental data: publication PMC9495004, “In Vitro Biological Activity of Natural Products from the Endophytic Fungus Paraboeremia selaginellae against Toxoplasma gondii” (Antibiotics, 2022)
Values after ≈ are worked out from the molar mass of the structure shown. Where two headings read alike, the source gives them in different places.

Tests used:
[1] = test system: Huh-7 (Human liver carcinoma cell line); assay: Resazurin cytotoxicity assay, Huh-7; format: cell-based; settings: for IC50: Homo sapiens, read-out: Mean IC50 Huh-7
Protocol: (§1) Figure 5 Effect of the natural products on the viability of THP-1, Huh-7, and HEK-293 cells. Cytotoxic effect of NK-A17e233 (A); 1,2-benzenediol,3-(4-hydroxy-2-methoxy-6-methylphenoxy)-5-methyl-(ACI) (B); cyperin (C); ES-242-1 (D); ES-242-3 (E); 5S,6S-phomalactone (F) against the human cell lines THP-1, Huh-7, and HEK-293 as determined by resazurin assay. 100% growth control DMSO, 0% growth control cycloheximide. Values represent the means of triplicates ± SEM.
(§2) The cytotoxicity study was carried out using the THP-1 (human monocytic leukemia cell line), Huh-7 (Human liver carcinoma cell line), and HEK293 (human embryonic kidney cell line) cell lines as described before. The THP-1 cells were cultured using RPMI 1640 medium containing 2 mM L-glutamine and supplemented with 10% fetal calf serum (FCS) and 1% sodium pyruvate. Huh-7 cells were cultured using a 1:1 mixture of RPMI 1640 medium containing 2 mM L-glutamine and 10% FCS medium and DMEM containing 10% FCS and 1% sodium pyruvate. The HEK-293 cells were cultured with DMEM including 2 mM L-glutamine and supplemented with 1% NE amino acids, 1% 1.0 mM sodium pyruvate and 10% FCS. All three cell lines were then incubated at 37 °C in an atmosphere of 5% CO2 under humid conditions for 2 weeks while renewing the medium twice weekly. Subsequently, the cells were suspended and adjusted to a density of 2 × 10^5 cells/mL. In a 96-well flat-bottom microtiter plate, the cells were adjusted to a total volume of 100 μL containing 2-fold serial dilutions of the tested compounds A–F ranging from 100 to 1.56 μM. Cycloheximide (4, 2, 1, 0.5, 0.25, 0.13, 0.06, 0.03 µg/mL) was used as a positive control. After an incubation time of 48 h at 37 °C in an atmosphere of 5% CO2 under humid conditions, 10 μL resazurin solution (100 μg/mL) was added to each well and incubated for another 4 h. The fluorescence was then quantified using a Tecan Infinite 200pro microplate reader (excitation 540 nm, emission 590 nm). The residual growth was calculated relative to non-inoculated conditions (0% growth) and controls treated with DMSO (100% growth).

P. aeruginosa ATCC 87110 = assay: Minimal inhibitory concentration assay (BacTiter Glo), P. aeruginosa; format: cell-based; settings: Pseudomonas aeruginosa, read-out: MIC90 P. aeruginosa ATCC 87110
S. aureus ATCC 700699 = assay: Minimal inhibitory concentration assay (BacTiter Glo), S. aureus; format: cell-based; settings: Staphylococcus aureus, read-out: MIC90 S. aureus ATCC 700699
[2] = test system: THP-1 (human monocytic leukemia cell line); assay: Resazurin cytotoxicity assay, THP-1; format: cell-based; settings: for IC50: Homo sapiens, read-out: Mean IC50 THP1
Protocol: as §1, §2

[3] = MTT cell viability assay against Hs27 cells; format: cell-based; settings: human, Hs27 fibroblast cells, >100 µM indicates no activity, read-out: CC50 against human fibroblasts Hs27
Protocol: Figure 4 Effect of the natural products on the metabolic activity of Hs27 cells via MTT assay. Hs27 cells were plated in 96-well plates and grown to confluence prior to incubation at 37 °C for 24 h with the natural products in the concentration range of […]. The cultures were incubated with 10 μL of the 12 mM MTT stock solution for approximately 4 h. Afterwards, 100 μL of SDS dissolved in HCl was added to each well and incubated again for 4 h at 37 °C. Finally, the absorbance was measured at 570 nm by spectrophotometry. Values shown in (A–F) represent the means of three independent experiments each done in duplicate (n = 6) ± SEM. Cytotoxicity in Hs27 cells of NK-A 17e233 (A); 1,2-benzenediol, 3-(4-hydroxy-2-methoxy-6-methylphenoxy)-5-methyl-(ACI) (B); cyperin (C); ES-242-1 (D); ES-242-3 (E); 5S,6S-phomalactone (F).
The 3-[4,5-dimethylthiazole-2-yl]-2,5-diphenyltetrazolium bromide (MTT) test was used to assess cell viability of the isolated active compounds against Hs27 cells. The MTT assay is a colorimetric reaction based on the enzymatic reduction of MTT to MTT-formazan, which is catalyzed by mitochondrial succinate dehydrogenase.
In brief, Hs27 cells were seeded 96-well plates in a monolayer in Iscove’s modified Dulbecco’s medium (Gibco–Thermo Fisher Scientific, Braunschweig, Germany) and incubated at 37 °C with different concentrations of the tested natural products (1.56, 3,12, 6.25, 12,5, 25, 50, 100 µM) in the culture media. Staurosporine ([…], 0.25, 0.5, 1 µM), a well-known cytotoxicity-inducing kinase inhibitor [40], untreated Hs27 cells, and DMSO were used as controls. After 24 h, the medium of the culture was removed and replaced with 100 μL of DMEM without red phenol (Gibco–Thermo Fisher Scientific, Braunschweig, Germany) plus 10% heat-inactivated fetal bovine serum (Invitrogen, Karlsruhe, Germany), and […] 2-mercaptoethanol (Gibco–Thermo Fisher Scientific, Braunschweig, Germany). Afterwards, the 12 mM MTT solution was added to each well according to the manufacturer’s instruction (Vybrant MTT Cell Proliferation Assay Kit, Thermo Fisher Scientific, Braunschweig, Germany). The OD value of each well was assayed at the wavelength of 570 nm on a microplate reader (TECAN Sunrise, Männedorf, Switzerland). The 50% cytotoxic concentration (CC50 values) of the tested natural products on Hs27 cells was calculated and all data were analyzed using Prism GraphPad version 9.2.0 software.

T. gondii strain ME49 = assay: T. gondii proliferation assay (3H-uracil incorporation); format: cell-based, Toxoplasma gondii
[4] = test system: HEK293 (human embryonic kidney cell line); assay: Resazurin cytotoxicity assay, HEK-293; format: cell-based; settings: for IC50: Homo sapiens, read-out: Mean IC50 HEK-293
Protocol: as §1, §2

M. tuberculosis H37Rv = assay: Minimal inhibitory concentration, resazurin reduction assay, M. tuberculosis; format: cell-based, Mycobacterium tuberculosis; settings: for MIC90: Mycobacterium tuberculosis, H37RV, 120 h, read-out: MIC90 M. tuberculosis H37Rv
Plasmodium falciparum = settings: cited from earlier work
[5] = Huh-7, resazurin assay, 48 h, >100 µM indicates no activity
[6] = ATCC87110, 24 h, >100 µM indicates no activity
[7] = ATCC700699, 24 h, >100 µM indicates no activity
[8] = THP-1, resazurin assay, 48 h, >100 µM indicates no activity
[9] = Toxoplasma gondii, HS27, Hs27 host cells, 48 h treatment, 3H-uracil incorporation, read-out: IC50 against T. gondii strain ME49 (proliferation)
[10] = HEK293, resazurin assay, 48 h, >100 µM indicates no activity
[11] = 5 days, resazurin, >100 µM indicates no activity
[12] = Toxoplasma gondii, HS27, read-out: IC50 against T. gondii strain ME49 (proliferation)
[13] = reported activity, read-out: IC50 against P. falciparum
[14] = resazurin assay, 48 h, >100 µM indicates no activity
[15] = Hs27 host cells, 48 h treatment, 3H-uracil incorporation

Structure (SMILES)	IC50 [1, 5] [µM]	MIC90 (P. aeruginosa ATCC 87110; [6]) [µM]	MIC90 (S. aureus ATCC 700699; [7]) [µM]	IC50 [2, 8] [µM]	CC50 at 24 h [3] [µM]	IC50 (T. gondii strain ME49; [9]) [µM]	IC50 [4, 10] [µM]	MIC90 M. tuberculosis H37Rv (M. tuberculosis H37Rv; [11])	MIC90 (M. tuberculosis H37Rv; [11]) [µM]	IC50 (T. gondii strain ME49; [12]) [µM]	other results
COc1cc(O)cc(C)c1Oc1cc(C)cc(O)c1O [B, 3-(4-Hydroxy-2-methoxy-6-methylphenoxy)-5-methylbenzene-1,2-diol]	> 100	> 100	> 100	> 100	> 100	19.4	> 100	no inhibitory effect	> 100		IC50 (T. gondii strain ME49; Hs27 host cells, 48 h treatment, 3H-uracil incorporation, read-out: IC50 against T. gondii strain ME49 (proliferation)): 22.2 µM
COc1cc(C)c(Oc2cc(C)cc(O)c2O)c(O)c1 [Compound A, NK-A 17e233]	> 100	> 100	> 100	> 100	> 100	5.75	> 100	no inhibitory effect	> 100		
COc1cc(C)c(Oc2cc(C)cc(O)c2)c(O)c1 [Compound C, cyperin]					> 100			no inhibitory effect		27.2	IC50 ([1]; Huh-7, 48 h): > 100 µM; MIC90 (P. aeruginosa ATCC 87110; ATCC87110, 24 h): > 100 µM; MIC90 (S. aureus ATCC 700699; ATCC700699, 24 h): > 100 µM; IC50 ([2]; THP-1, 48 h): > 100 µM; IC50 ([4]; HEK293, 48 h): > 100 µM; MIC90 (M. tuberculosis H37Rv): > 100 µM
COc1cc(OC)c2c(O)c3c(c(-c4c5c(c(O)c6c(OC)cc(OC)cc46)CO[C@@H](C)[C@H]5OC(C)=O)c2c1)C[C@@H](C)OC3 [D, ES-242-1]	> 100	> 100	> 100	> 100	> 100	7.38	93.8		50 (≈ 30.2 µg/mL)		IC50 (Plasmodium falciparum; [13]): 8.44 µM
COc1cc(OC)c2c(O)c3c(c(-c4c5c(c(O)c6c(OC)cc(OC)cc46)CO[C@@H](C)[C@H]5OC(C)=O)c2c1)C(O)[C@@H](C)OC3 (stereo partly shown) [E, ES-242-3]	13	> 100	> 100	21.9	> 100	18	16.9		100 (≈ 62.1 µg/mL)		Mean IC50 Huh-7 [1, 14]: moderate cytotoxic activity; IC50 (Plasmodium falciparum; [13]): 13.2 µM; Mean IC50 THP1 [2, 14]: moderate cytotoxic activity; Mean IC50 HEK-293 [4, 14]: moderate cytotoxic activity
C/C=C/[C@@H]1OC(=O)C=C[C@@H]1O [F, 5S,6S-phomalactone]	100	100 (≈ 15.4 µg/mL)	> 100	24.3	81		66.9	no inhibitory effect		5.13	Mean IC50 Huh-7 [1, 14]: no or weak cytotoxic effects; IC50 (Plasmodium falciparum; previous report, read-out: IC50 against Plasmodium falciparum): 84.3 µM; Mean IC50 HEK-293 [4, 14]: no or weak cytotoxic effects; MIC90 (M. tuberculosis H37Rv): > 100 µM
Cc1cc(O)c(C)c(=O)o1 [G, methyltriaceticlactone]		> 100	> 100					no inhibitory effect	> 100		IC50 against T. gondii strain ME49 (proliferation) (T. gondii strain ME49; [15]): Not active
CCC(C)CC(C)/C=C(C)/C=C/CC(C)C(O)C(C)/C=C(C)/C=C/C(O)C(C)(C)c1cc(O)c([C@H]2O[C@@H](CO)C[C@@H](O)[C@@H]2O)c(=O)o1 (stereo partly shown) [H, S 39163/F-1]		> 100	> 100					no inhibitory effect	> 100		IC50 against T. gondii strain ME49 (proliferation) (T. gondii strain ME49; [15]): Not active
CCc1nc(N)nc(N)c1-c1ccc(Cl)cc1 [pyrimethamine, reference compound]					44					0.06	
